Results on 17 molecules are retold here after patent publication US20050222146A1, “N-substituted-n-sulfonylaminocyclopropane compounds and pharmaceutical use thereof” (priority 2003, published 2005).

One assay concerns the target T1, aggrecanase-1 (Homo sapiens, UniProt O75173).
T1 sequence (O75173 213-837): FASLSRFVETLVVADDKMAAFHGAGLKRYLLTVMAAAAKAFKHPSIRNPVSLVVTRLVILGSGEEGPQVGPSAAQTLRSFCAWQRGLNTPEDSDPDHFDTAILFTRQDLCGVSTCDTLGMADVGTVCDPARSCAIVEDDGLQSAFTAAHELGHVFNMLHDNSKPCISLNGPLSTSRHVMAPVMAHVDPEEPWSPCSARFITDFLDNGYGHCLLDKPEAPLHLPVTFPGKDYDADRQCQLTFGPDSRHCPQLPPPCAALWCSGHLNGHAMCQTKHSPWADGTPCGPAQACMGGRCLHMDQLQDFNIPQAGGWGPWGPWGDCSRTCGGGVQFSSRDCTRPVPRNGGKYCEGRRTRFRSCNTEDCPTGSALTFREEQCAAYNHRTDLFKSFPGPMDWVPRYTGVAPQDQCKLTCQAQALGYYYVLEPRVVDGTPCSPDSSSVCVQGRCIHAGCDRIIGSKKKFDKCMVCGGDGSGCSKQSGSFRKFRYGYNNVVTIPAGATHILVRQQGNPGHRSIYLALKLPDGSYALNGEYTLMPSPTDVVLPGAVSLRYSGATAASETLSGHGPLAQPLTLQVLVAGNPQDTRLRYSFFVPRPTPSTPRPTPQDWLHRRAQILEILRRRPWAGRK
The assay can be described thus: Aggrecanase-1 inhibitory action, Particle Assay (GAG release from aggrecan-containing polyacrylamide particles). It counts as biochemical. The settings on record: 37° C. for 15 hr, read-out: Experimental Example 1 IC50 AG1. On the procedure:
Aggrecanase-1 Inhibitory Action
Particle Assay was used for determination of aggrecanase activity.
(§1) The enzyme and substrate were diluted with Tris-HCl buffer, and test compounds were diluted with dimethyl sulfoxide (DMSO).
Test compounds and the enzyme were added into 96-well plate, and polyacrylamide particles containing aggrecan were added as a substrate and the mixture was incubated at 37° C. for 15 hr.
After incubation; the supernatant was transferred to another plate, and mixed with 1,9-dimethylmethylene blue. The absorbance at 595 nm was measured to quantify the amount of glycosaminoglycan (GAG) released in the reaction supernatant. Whale chondroitin sulfate was used as the standard of GAG. The inhibitory activity of the compound in each well (%) was calculated based on the values of enzyme-free well and inhibitor-free well. The inhibitory activity of the compound was represented as IC50 (μM).

In a further assay the target is T2, MMP-1 (Homo sapiens, UniProt P03956).
T2 sequence (P03956 100-469): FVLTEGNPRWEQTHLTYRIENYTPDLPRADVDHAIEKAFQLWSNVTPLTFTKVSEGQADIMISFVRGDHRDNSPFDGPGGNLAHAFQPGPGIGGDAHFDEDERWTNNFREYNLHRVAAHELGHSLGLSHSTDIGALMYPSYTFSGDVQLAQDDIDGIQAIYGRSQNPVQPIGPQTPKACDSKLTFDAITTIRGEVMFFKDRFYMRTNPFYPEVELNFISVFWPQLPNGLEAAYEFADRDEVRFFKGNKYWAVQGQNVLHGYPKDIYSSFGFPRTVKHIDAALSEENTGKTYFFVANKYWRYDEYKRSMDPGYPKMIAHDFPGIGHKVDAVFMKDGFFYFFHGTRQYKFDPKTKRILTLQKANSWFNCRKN
The assay is described as follows: MMP-1 inhibitory action, Type I collagen Activity Measurement kit (FITC-labeled collagen type I). The assay is classed as biochemical. The note with it: 37° C. for 3 hr, read-out: Experimental Example 2 IC50 MMP1. As for the experimental part:
For MMP-1 Assay, Type I collagen Activity Measurement kit (YAGAI YU-72013) modified to a 96-well plate format was used.
The principle of the kit is based on the property of collagen that becomes soluble in ethanol after being cleaved by MMP-1.
as §1
The enzyme and test compounds were added into 96-well plate, and fluorescein isothiocianate (FITC)-labeled collagen type I was added as a substrate and the mixture was incubated at 37° C. for 3 hr.
The reaction was terminated by addition of Tris-HCl buffer containing ethanol. After centrifugation, the supernatant containing denatured substrate was transferred to another 96-well plate. The collagenase activity of MMP-1 was determined by measuring FITC fluorescence intensity (excitation wavelength 485 nm, emission wavelength 530 nm) of each well. The inhibitory activity of the compound in each well (%) was calculated based on the values of enzyme-free well and inhibitor-free well. The inhibitory activity of the compound was represented as IC50 (μM).

Molecules are shown by their SMILES.

Usually IC50 stands for the concentration needed to halve the response being measured. For the molecule `O=C(O)CN([C@]1(C(=O)O)C[C@H]1c1ccccc1-c1ccccc1)S(=O)(=O)c1ccc(-c2ccc(Cl)cc2)cc1` (relative stereo) [Example 1-26, (1R*,2S*)-2-biphenyl-2-yl-1-[carboxymethyl-(4′-chloro-biphenyl-4-sulfonyl)-amino]-cyclopropanecarboxylic acid], the IC50 on aggrecanase-1 is < 1 µM; on MMP-1 it was ≥ 10 µM.

With `N#Cc1cccc([C@@H]2C[C@@]2(C(=O)O)N(CC(=O)O)S(=O)(=O)c2ccc(-c3ccc(Cl)cc3)cc2)c1` (relative stereo) [Example 1-27, (1R*,2S*)-1-[carboxymethyl-(4′-chloro-biphenyl-4-sulfonyl)-amino]-2-(3-cyano-phenyl)-cyclopropanecarboxylic acid], the IC50 was < 0.1 µM at aggrecanase-1 and ≥ 10 µM on MMP-1.

Regarding `N#Cc1ccccc1[C@@H]1C[C@@]1(C(=O)O)N(CC(=O)O)S(=O)(=O)c1ccc(-c2ccc(Cl)cc2)cc1` (relative stereo) [Example 1-28, (1R*,2S*)-1-[carboxymethyl-(4′-chloro-biphenyl-4-sulfonyl)-amino]-2-(2-cyano-phenyl)-cyclopropanecarboxylic acid], the IC50 is < 1 µM at aggrecanase-1 and ≥ 10 µM at MMP-1.

Take `O=C(O)CN([C@]1(C(=O)O)C[C@H]1c1c(Cl)cccc1Cl)S(=O)(=O)c1ccc(-c2ccc(Cl)cc2)cc1` (relative stereo) [Example 1-29, (1R*,2S*)-1-[carboxymethyl-(4′-chloro-biphenyl-4-sulfonyl)-amino]-2-(2,6-dichloro-phenyl)-cyclopropanecarboxylic acid]: the figures for the IC50 at aggrecanase-1 and at MMP-1 were < 1 µM and ≥ 10 µM, respectively.

For `N#Cc1ccc([C@@H]2C[C@@]2(C(=O)O)N(CC(=O)O)S(=O)(=O)c2ccc(-c3ccc(Cl)cc3)cc2)cc1` (relative stereo) [Example 1-30, (1R*,2S*)-1-[carboxymethyl-(4′-chloro-biphenyl-4-sulfonyl)-amino]-2-(4-cyano-phenyl)-cyclopropanecarboxylic acid], the values for the IC50 on aggrecanase-1 and at MMP-1 were < 1 µM and ≥ 10 µM, respectively.

Consider `O=C(O)CN([C@]1(C(=O)O)C[C@H]1c1ccccc1Cc1ccccc1)S(=O)(=O)c1ccc(-c2ccc(Cl)cc2)cc1` (relative stereo) [Example 1-31, (1R*,2S*)-2-(2-benzyl-phenyl)-1-[carboxymethyl-(4′-chloro-biphenyl-4-sulfonyl)-amino]-cyclopropanecarboxylic acid], for which the IC50 on aggrecanase-1 is < 0.1 µM; at MMP-1 it was ≥ 10 µM.

As for `O=C(O)CN([C@]1(C(=O)O)C[C@H]1c1ccc(-c2ccccc2)cc1)S(=O)(=O)c1ccc(-c2ccc(Cl)cc2)cc1` (relative stereo) [Example 1-32, (1R*,2S*)-2-biphenyl-4-yl-1-[carboxymethyl-(4′-chloro-biphenyl-4-sulfonyl)-amino]-cyclopropanecarboxylic acid], the figures for the IC50 on aggrecanase-1 and at MMP-1 were < 1 µM and ≥ 10 µM, respectively.

Regarding `O=C(O)CN([C@]1(C(=O)O)C[C@H]1c1ccccc1C(F)(F)F)S(=O)(=O)c1ccc(-c2ccc(Cl)cc2)cc1` (relative stereo) [Example 1-33, (1R*,2S*)-1-[carboxymethyl-(4′-chloro-biphenyl-4-sulfonyl)-amino]-2-(2-trifluoromethyl-phenyl)-cyclopropanecarboxylic acid], the IC50 at aggrecanase-1 was < 1 µM; on MMP-1 it was ≥ 10 µM.

As to `O=C(O)CN([C@]1(C(=O)O)C[C@H]1c1cccc(C(F)(F)F)c1)S(=O)(=O)c1ccc(-c2ccc(Cl)cc2)cc1` (relative stereo) [Example 1-34, (1R*,2S*)-1-[carboxymethyl-(4′-chloro-biphenyl-4-sulfonyl)-amino]-2-(3-trifluoromethyl-phenyl)-cyclopropanecarboxylic acid], the half-maximal inhibitory concentration (IC50) on aggrecanase-1 was < 0.1 µM; at MMP-1, ≥ 10 µM.

With `O=C(O)CN([C@]1(C(=O)O)C[C@H]1c1cc(Cl)ccc1C(F)(F)F)S(=O)(=O)c1ccc(-c2ccc(Cl)cc2)cc1` (relative stereo) [Example 1-35, (1R*,2S*)-1-[carboxymethyl-(4′-chloro-biphenyl-4-sulfonyl)-amino]-2-(5-chloro-2-trifluoromethyl-phenyl)-cyclopropanecarboxylic acid], the values for the IC50 at aggrecanase-1 and on MMP-1 were < 1 µM and ≥ 10 µM, respectively.

In the case of `CC(C)(CN([C@]1(C(=O)O)C[C@H]1c1ccccc1)S(=O)(=O)c1ccc(-c2ccc(Cl)cc2)cc1)C(=O)O` (relative stereo) [Example 1-37, (1R*,2S*)-1-[(2-carboxy-2-methyl-propyl)-(4′-chloro-biphenyl-4-sulfonyl)-amino]-2-phenyl-cyclopropanecarboxylic acid], the figures for the IC50 on aggrecanase-1 and at MMP-1 were < 1 µM and ≥ 10 µM, respectively.

On to `CS(=O)(=O)NC(=O)CN([C@]1(C(=O)O)C[C@H]1c1ccccc1)S(=O)(=O)c1ccc(-c2ccc(Cl)cc2)cc1` (relative stereo) [Example 1-38, (1R*,2S*)-1-[(4′-chloro-biphenyl-4-sulfonyl)-(2-methanesulfonylamino-2-oxo-ethyl)-amino]-2-phenyl-cyclopropanecarboxylic acid], for which the IC50 is < 1 µM on aggrecanase-1 and ≥ 10 µM at MMP-1.

Consider `O=C(O)CN([C@]1(C(=O)O)C[C@H]1c1cccc(OCc2ccccc2)c1)S(=O)(=O)c1ccc(-c2ccc(Cl)cc2)cc1` (relative stereo) [Example 1-39, (1R*,2S*)-2-(3-benzyloxy-phenyl)-1-[carboxymethyl-(4′-chloro-biphenyl-4-sulfonyl)-amino]-cyclopropanecarboxylic acid], for which the IC50 at aggrecanase-1 is < 0.1 µM; at MMP-1 it was ≥ 10 µM.

With `O=C(O)CN([C@]1(C(=O)O)C[C@H]1c1ccccc1OCc1ccccc1)S(=O)(=O)c1ccc(-c2ccc(Cl)cc2)cc1` (relative stereo) [Example 1-40, (1R*,2S*)-2-(2-benzyloxy-phenyl)-1-[carboxymethyl-(4′-chloro-biphenyl-4-sulfonyl)-amino]-cyclopropanecarboxylic acid], the IC50 on aggrecanase-1 is < 0.1 µM; on MMP-1 it was ≥ 10 µM.

`O=C(O)CN([C@]1(C(=O)O)C[C@H]1c1cccc(Cl)c1Cl)S(=O)(=O)c1ccc(-c2ccc(Cl)cc2)cc1` (relative stereo) [Example 1-41, (1R*,2S*)-1-[carboxymethyl-(4′-chloro-biphenyl-4-sulfonyl)-amino]-2-(2,3-dichloro-phenyl)-cyclopropanecarboxylic acid]: the IC50 on aggrecanase-1 was < 0.1 µM; at MMP-1, ≥ 10 µM.

As for `O=C(O)CN([C@]1(C(=O)O)C[C@H]1c1ccccc1Oc1ccccc1)S(=O)(=O)c1ccc(-c2ccc(Cl)cc2)cc1` (relative stereo) [Example 1-42, (1R*,2S*)-1-[carboxymethyl-(4′-chloro-biphenyl-4-sulfonyl)-amino]-2-(2-phenoxy-phenyl)-cyclopropanecarboxylic acid], the values for the IC50 on aggrecanase-1 and at MMP-1 were < 0.1 µM and ≥ 10 µM, respectively.

`O=C(CN([C@]1(C(=O)O)C[C@H]1c1ccccc1)S(=O)(=O)c1ccc(-c2ccc(Cl)cc2)cc1)N1CC(O)C(O)C1` (relative stereo) [Example 1-43, (1R*,2S*)-1-{(4′-chloro-biphenyl-4-sulfonyl)-[2-(3,4-dihydroxy-pyrrolidin-1-yl)-2-oxo-ethyl]-amino}-2-phenyl-cyclopropanecarboxylic acid]: the IC50 is < 1 µM at aggrecanase-1 and ≥ 10 µM at MMP-1.
